# Experiment: population PK model and simulations of flat versus BSA-based dosing of tamibarotene
# Parameters: species or system human
# Conditions: population PK analysis of prior study, 6 mg/m2/day in 2 divided doses
# Protocol: The dose and regimen used in a prior study (6 mg/m^2/day in 2 divided doses) were based on the dose and regimen approved in Japan for the treatment of APL. […] Based on this analysis, the fixed dosing regimens described herein, including the 6 mg BID flat dosing regimen, are expected to provide similar PK exposures compared to the 6 mg/m^2/day (in 2 divided doses) regimen used in the prior study.
# A population PK model was developed using patient characteristics, and we assessed the impact of weight on drug clearance. Simulations were conducted to assess the performance of “flat” versus BSA-based dosing. Simulated AUC (area-under-the-curve) from the model was used to establish relationship of exposure with efficacy and safety; we analyzed exposure and achievement of CR/CRi and exposure with adverse events equal to or greater than those of grade 3.
substance,measurement,value
Tamibarotene,association of body size with clearance,not significantly associated
